These results are taken from patent US12398153B2, “Spiro compound serving as ERK inhibitor, and application thereof” (D3 BIO (WUXI) CO., LTD., priority 2019, dated 2025).

Series [1] concerns HT29 tumor cells. Put plainly: In vitro cell proliferation inhibition assay (CellTiterGlo). The series is classed as cell-based. The protocol:
Assay Example 2. In Vitro Cell Proliferation Inhibition Assay
The ability of compounds to inhibit the proliferation of HT29 tumor cells was measured.
The assay compound was dissolved in 100% DMSO to prepare 10 mM stock solution.
• 1) UV light of a biological safety cabin was turned on, and 30 minutes were counted down; • 2) In a 37° C. water bath, RPMI1640 medium and trypsin were preheated; • 3) After completion of the UV irradiation, the biological safety cabin was opened. The preheated medium, trypsin and phosphate buffered saline (PBS), etc. were wiped with alcohol and placed in the biological safety cabin; • 4) HT29 cells were removed from the incubator, and the old medium was removed in biological safety cabin. 10 ml of PBS was added. The mixture was shaken gently, and then PBS was removed; • 5) 1.5 ml of preheated 0.25% trypsin was added. The culture vessel was shaken horizontally so that the trypsin evenly covered the cells at the bottom, and placed in an incubator for 2 minutes; • 6) Cell digestion was stopped with complete medium, and the cell suspension was pipetted to homogeneity and counted; • 7) According to the result of cell counting, the density of cell suspension was adjusted to 1500 cells per well, and the cell suspension was seeded at 50 μl per well; • 8) The stock solution of compounds was serially diluted in DMSO solution, and compounds were added to cell plate using Tecan;
9) The compound-added cell plate and CellTiterGlo were equilibrated at room temperature, and 25 microliters of CellTiterGlo was then added to each well. The cell plate was shaken for 1-2 minutes and then allowed to stand for 10 minutes. The signal value was then detected. The data were analyzed using XL-Fit, and the IC50 of each compound was calculated.
(Cellular ATP, detected with luciferase, serves as a proxy for viable cell number.)

In series [2] the target is ERK2 kinase (Homo sapiens (Human), UniProt P28482). In words: Assay of in vitro kinase activity (33P-ATP filter-binding, MBP substrate). The series is classed as biochemical. The protocol:
Assay Example 1. Assay of In Vitro Kinase Activity
The ability of compounds to inhibit ERK2 kinase activity was measured.
20 mM Hepes (pH 7.5), 10 mM MgCl2, 1 mM ethylenebis(oxyethylenenitrilo)tetraacetic acid (EGTA), 0.02% Brij35, 0.02 mg/mL bovine serum albumin (BSA), 0.1 mM Na3VO4, 2 mM dithiothreitol (DTT), 1% DMSO.
The assay compound was dissolved in 100% DMSO to prepare a stock solution of specific concentration. The compound was serially diluted in DMSO solution using Integra Viaflo Assist smart pipette.
• 1) The substrate MBP was prepared in freshly prepared reaction buffer; • 2) ERK2 kinase was added to the above-mentioned MBP solution and mixed gently; • 3) The compound dissolved in 100% DMSO was added to the kinase reaction system using ultrasound technology (Echo550; nanoliter range), and the mixture was incubated at room temperature for 20 minutes; • 4) ^33P-ATP (specific concentration of […]) was added to the reaction system, and the reaction was started at this time; • 5) The mixture was incubated at room temperature for 2 hours; • 6) The amount of radioactivity was detected by filter-binding method; • 7) ERK2 kinase activity was calculated as the ratio of the remaining kinase activity in the assay sample to the kinase activity of the control group (treated by DMSO). Curve was fitted using Prism (GraphPad software) and IC50 values were calculated. 5.

Series [3] is described as follows: In vivo DMPK assay in mouse. The settings on record: female BALB/c mice; for Oral DNAUC (AUCPO/Dose) / Cmax: 3 mg/kg orally; for clearance / Vd / bioavailability / half-life / Cmax: mouse, plasma; for clearance / Vd: iv, 1 mg/kg intravenously; for clearance: read-out: Cl (clearance rate); for Vd: read-out: Vdss (distribution volume); for bioavailability / Cmax: po; for bioavailability: 1 mg/kg intravenously and 3 mg/kg orally, read-out: F % (oral bioavailability); for half-life: single administration, read-out: T1/2 (half-life) (converted); for Cmax: read-out: Cmax (maximum concentration). From the text:
Assay Example 3. Assay of In Vivo DMPK
In vivo DMPK assay in mouse
Female BALB/c mice were used as assay animals to determine the blood concentration of compounds and evaluate the pharmacokinetic behavior after a single administration.
Eight healthy adult female BALB/c mice were selected, wherein 4 mice were in the intravenous injection group and 4 mice were in the oral group. The vehicle in the intravenous injection group was 5% DMSO+95% (20% HP-β-CD). The compound to be assayed was mixed with an appropriate amount of vehicle for intravenous injection, vortexed and sonicated to prepare a clear solution of 0.5 mg/mL. The clear solution was filtered by a microporous membrane, and then ready for use. The vehicle in the oral group was 5% DMSO+95% (20% HP-β-CD). The compound to be assayed was mixed with the vehicle, vortexed and sonicated to prepare a solution of 0.3 mg/mL. Mice were administered 1 mg/kg intravenously or 3 mg/kg orally, and then whole blood was collected for a certain period. Plasma was prepared. The drug concentration was analyzed by LC-MS/MS method, and the pharmacokinetic parameters were calculated by Phoenix WinNonlin software (Pharsight, USA).
Note: DMSO: dimethyl sulfoxide; HP-β-CD: hydroxypropyl-β-cyclodextrin.

In series [4] the test system is human colon cancer HCT-116 cells. Put plainly: In vivo efficacy, subcutaneous xenograft tumor of human colon cancer HCT-116 cells in BALB/c nude mouse. The settings on record: 15 mg/kg, PO, QD. The protocol: Assay Example 4. Assay of In Vivo Efficacy of Subcutaneous Xenograft Tumor of Human Colon Cancer HCT-116 Cells in BALB/c Nude Mouse Model
The anti-tumor effect of WX007 was evaluated using a subcutaneous xenograft tumor model of human colon cancer HCT-116 cells in nude mouse.
• Species: mouse • Strain: BALB/c nude mouse • Age: 6-8 weeks old • Gender: female • Weight: 17-23 grams • Vendor: Laboratory Animal Management Department, Shanghai Institute for Biomedical and Pharmaceutical Technologies • Animal certificate number: 20180006020214 3. Assay Procedure: • 1) Assay cells and culture: Human colon cancer HCT-116 cells were cultured in monolayer in vitro. […] When the cell saturation was 80%-90% and the amount reached the requirement, the cells were harvested, counted, and inoculated; • 2) Tumor tissue inoculation and grouping: 0.2 mL (5×10^6) of HCT-116 cells were subcutaneously inoculated into the right armpit of each mouse. […]
• 3) Daily observation of assay animals: The development of this assay protocol and any modifications were evaluated and approved by the Institutional Animal Care and Use Committee (IACUC). […] Animals were monitored daily for health and death. […] The compound was formulated once a week. • 5) Tumor measurement and assay indicator: • a) Tumor diameter was measured twice a week with a vernier caliper. […]
(In xenograft studies the graft and the host belong to different species.)

pIC50: −log10 of the molar value. Where two headings read alike, the source gives them in different places.

What is called pIC50 is −log10 of the IC50, conventionally taken in molar units. For orientation: clearance means a measure of how efficiently the substance is removed, as volume per time. In general, bioavailability refers to the share of a dose that reaches the circulation, judged against a reference dose that is usually intravenous.

ERK2 kinase, sequence (P28482 whole entry): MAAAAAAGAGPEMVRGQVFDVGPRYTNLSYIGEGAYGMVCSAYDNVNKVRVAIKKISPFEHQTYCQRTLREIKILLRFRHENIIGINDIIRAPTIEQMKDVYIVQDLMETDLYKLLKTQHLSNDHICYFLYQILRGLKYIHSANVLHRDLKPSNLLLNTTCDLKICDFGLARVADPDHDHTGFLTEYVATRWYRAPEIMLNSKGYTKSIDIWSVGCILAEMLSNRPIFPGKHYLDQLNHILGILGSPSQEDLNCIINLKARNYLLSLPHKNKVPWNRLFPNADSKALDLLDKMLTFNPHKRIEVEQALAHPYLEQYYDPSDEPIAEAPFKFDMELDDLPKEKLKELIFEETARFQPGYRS

As for `Cn1nccc1Nc1nccc(-c2nc3c(s2)[C@@]2(CCOC2)N(Cc2cccc(Cl)c2)C3=O)n1` [WX001A], the pIC50 in series [1] was 7.68; in series [2] it was 9.51.
Take `Cn1nccc1Nc1nccc(-c2nc3c(s2)C2(CCOCC2)N(Cc2cccc(Cl)c2)C3=O)n1` [WX002]: the pIC50 in series [1] (Homo sapiens, HT-29) is 7.14; in series [2] it was 9.40.
For `O=C1c2nc(-c3ccnc(NC4CCOCC4)n3)sc2C2(CCOCC2)N1Cc1cccc(Cl)c1` [WX003], the pIC50 in series [1] (Homo sapiens, HT-29) is 7.16; in series [2] it was 9.54.
On the same counts, the results for `Cn1nccc1Nc1nccc(-c2nc3c(s2)C2(COC2)N(Cc2cccc(F)c2)C3=O)n1` [WX004] are 6.90 and 8.96.
On the same counts, the results for `Cn1nccc1Nc1nccc(-c2nc3c(s2)C2(COC2)N(Cc2cccc(Cl)c2)C3=O)n1` [WX005] are 7.31 and 9.44.
For the compound `Cc1cnc(Nc2ccnn2C)nc1-c1nc2c(s1)C1(COC1)N(Cc1cccc(F)c1)C2=O` [WX006], in series [1] (Homo sapiens, HT-29), the negative-log IC50 (pIC50) is 7.85. The same compound gave a pIC50 in series [2] of 9.03. Further, in series [3], the “Oral DNAUC (AUCPO/Dose)” value is 1356 nM · h/mpk, the clearance amounted to 17.2 mL/min/kg, the Vd was found to be 1.7 L/kg and the bioavailability was 70%. In addition, in series [3], the half-life was 1.4 h and the Cmax was 1400 nM.
Compound `Cc1cnc(Nc2ccnn2C)nc1-c1nc2c(s1)C1(COC1)N(Cc1cccc(Cl)c1)C2=O` [WX007] gave a pIC50 in series [1] (Homo sapiens, HT-29) of 7.96. Also, in series [4] (18th day, HCT-116 xenograft in nude mouse), the “TGI (inhibition rate of tumor growth)” value is reported as 62%. Besides, the “Body weight of assay animals” value in series [4] (to the 18th day) is reported as “did not decrease significantly”. The negative-log IC50 (pIC50) in series [2] was 9.32. For the same compound, in series [3], the “Oral DNAUC (AUCPO/Dose)” value is 1086 nM · h/mpk, the clearance was 14.4 mL/min/kg, the Vd was 1.7 L/kg and the bioavailability was found to be 46%. Moreover, in series [3], the half-life is 1.3 h and the Cmax is 595 nM.
